The record followed here is patent US5444084A, “Substituted heterocyclic derivative having squalene epoxidase inhibition action and its use” (Banyu Pharmaceutical Co., Ltd., priority 1992, dated 1995).

Molecules are shown by their SMILES.

For one data set, the system named is rats (SD male). The experiment in a line: Subacute toxicity test. Format: in vivo, rat (SD male). As to conditions: 300 mg/kg per day oral for 7 days, 3 animals per group, 0.5% aqueous methylcellulose suspension. The protocol:
Subacute toxicity test example
The compound of Example 34 was suspended in 0.5% aqueous methylcellulose solution and orally administered to groups of rats (SD male), each group consisting of 3 animals, at a rate of 300 mg/kg per day for 7 days.

Another data set addresses T1, Human squalene epoxidase (Homo sapiens, UniProt Q14534).
T1 construct: The resultant supernatant is used as the squalene epoxidase fraction in the later-described test; endogenous in cells; host or cells: Hep-G2 human hepatoma cells (microsomes solubilized with Triton X-100)
Description: Human squalene epoxidase inhibition action. The class given is biochemical. The conditions noted are these: solubilized Hep-G2 microsome fraction, 8 μM 3H-squalene, 37° C., 60 minutes, read-out: Inhibition rate at 3 μM concentration. The protocol:
Squalene epoxidase inhibition action
(1) Preparation of squalene epoxidase
Human squalene epoxidase is prepared in accordance with the process disclosed in J. Biol. Chem., 245, 1670 (1970); ibid., 250, 1572 (1975).
Namely, human hepatoma (Hep-G2) cells are cultured at 37° C. under air containing 5% carbon dioxide. After completion of the culture, the cells are scraped and collected by centrifugation. The cells are suspended in 0.1M Tris-HCl buffer (pH 7.5) (1×10^8 cells/ml), the suspension is homogenized and centrifuged at 9750 Xg for 10 minutes, and then the sediment is washed with 0.1M Tris-HCl buffer (pH 7.5) and centrifuged at 105,000 Xg for 1 hour. The resultant microsome is suspended in 0.1M Tris-HCl buffer (pH 7.5) so that the protein amount becomes 20 mg/ml, and solubilized by stirring the suspension under ice cooling in the presence of 1% Triton X-100. After this solubilization treatment, the concentration of Triton X-100 is diluted to 0.125% with 1 mM EDTA and 1 mM dithiothreitol, and the dilution is centrifuged at 105,000 Xg for 1 hour. The resultant supernatant is used as the squalene epoxidase fraction in the later-described test.
(2) Assay of squalene epoxidase activity
Assay of human squalene epoxidase activity is carried out according to the method disclosed in J. Biol. Chem., 245, 1670 (1970).
Namely, 3 μl of a dimethyl sulfoxide solution of a test chemical is added to a solution consisting of 0.2 ml of the squalene epoxidase fraction [protein amount 0.4 mg, 0.1% Triton X-100, […] Tris-HCl buffer (pH 7.5)] prepared in (1), 100 μM FAD, 1 mM NADPH, 1 mM EDTA and 8 μM ^3 H-squalene-Tween 80 suspension to make the total volume 0.3 ml, and the mixture is subjected to reaction with shaking at 37° C. for 60 minutes. 0.3 ml of 10% potassium hydroxide-methanol solution is added to discontinue the reaction, and the mixture is heated at 75° C. for 1 hour. Then the non-saponified substance is extracted with petroleum ether and the extract is concentrated to dryness under a nitrogen stream. The resultant residue is dissolved in a small amount of ethyl ether, pre-coated Silicagel TCL is spotted with the extract, and development is carried out with benzeneethyl acetate (99.5:0.5). The position of the ^3 H-squalene-2,3 -epoxide in the TLC is confirmed using ergosterol acetate as a marker, and the ^3 H-squalene-2,3-epoxide portion in the TLC is cut out. The TLC piece is immersed in a toluene series scintillator and measurement is made using a liquid scintillation counter. Thereby, the inhibition rates (%) against squalene epoxidase at 3 μM concentration of compounds of this invention are determined, and the results are shown in the following Table 1.

Another data set relates to cholesterol biosynthesis. The experiment in a line: Inhibition test of in vivo cholesterol biosynthesis in rat. The arrangement: species or system rat (female SD). As to conditions: 3 mg/kg oral, n = 5, rat. As to the method: Inhibition test of in vivo cholesterol biosynthesis
In this in vivo test, female SD rats (5 weeks old) are used. The rats are raised for 9 days under an environment where illumination is applied with reversed day and night (dark from 6 a.m. to 6 p.m.), and meanwhile they can freely ingest a solid feed and water. A test chemical is orally administered two hours before dark 6 o'clock when cholesterol biosynthesis becomes maximum. The compound is dissolved in a middle-chain fatty acid triglyceride, and orally administered at 3 mg/kg in an amount of 0.5 ml/100 g body weight. Further, the same volume of the solvent (vehicle) used is administered to control animals. […] after the administration of the test chemical, 20μ Ci/100 g body weight of ^14 C-sodium acetate (56 m Ci/m mole) is intraperitoneally administered to the rats, respectively. At dark 6 o'clock blood is sampled from the abdominal artery of each animal under ether anesthesia and centrifuged to separate the plasma.
2 ml of 15% potassium hydroxide-methanol solution is added per ml of the plasma, and the mixture is heated at 75° C. for 3 hours to carry out saponification. Each sample is extracted twice, each time with 2 ml of petroleum ether, and the extract is washed with 2 ml of distilled water. Finally each extract is evaporated to dryness under a nitrogen stream.
The resultant residue is dissolved in a small amount of ethyl ether, and a pre-coated silica gel TLC is spotted with the total amount of the solution. This plate is developed with a solvent system of hexane/ethyl ether/acetic acid (85:15:4). Coloring is carried out with iodine, and radioactivity at the cholesterol part is assayed using a liquid scintillation counter.
The results (Table 2) are expressed by dpm values of produced ^14 C-cholesterol existing in 1 ml of each plasma. Further, the inhibition of cholesterol biosynthesis is calculated by comparing the amounts of ^14 C-cholesterol biosynthesis between the test groups and the control group.

T1 sequence (Q14534 whole entry): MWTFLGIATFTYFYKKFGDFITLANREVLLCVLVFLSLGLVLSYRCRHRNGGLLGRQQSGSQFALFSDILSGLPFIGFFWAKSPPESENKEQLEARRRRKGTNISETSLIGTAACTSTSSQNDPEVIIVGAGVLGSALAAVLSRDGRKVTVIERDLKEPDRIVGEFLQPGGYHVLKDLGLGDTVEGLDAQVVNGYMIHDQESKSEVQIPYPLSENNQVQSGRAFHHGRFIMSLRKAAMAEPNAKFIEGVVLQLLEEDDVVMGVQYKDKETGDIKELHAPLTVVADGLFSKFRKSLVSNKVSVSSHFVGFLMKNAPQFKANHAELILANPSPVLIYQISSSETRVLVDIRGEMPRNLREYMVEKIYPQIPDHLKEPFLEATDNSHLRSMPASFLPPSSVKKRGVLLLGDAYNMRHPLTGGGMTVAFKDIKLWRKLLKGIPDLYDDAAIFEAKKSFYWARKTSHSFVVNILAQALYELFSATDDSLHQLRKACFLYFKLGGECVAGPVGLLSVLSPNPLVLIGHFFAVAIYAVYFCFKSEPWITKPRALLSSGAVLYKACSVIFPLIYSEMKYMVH

Turning to `COCC(C/C=C/C#CC(C)(C)C)Cc1cccc(/C=C/c2cccc(-c3ccsc3)c2)c1` (stereo not shown) [Example 34, (E,E)-3-[3-[2-[3-(2-methoxymethyl-8,8-dimethyl-4-nonen-6-ynyl)phenyl]ethenyl]phenyl]thiophene], the “death and other toxic symptoms” value in the data set on rats (SD male) is “death and other toxic symptoms were not observed at all”. In addition, at Human squalene epoxidase, the inhibition at 3 µM came out at 100%. Also, the “14C-cholesterol, dpm” value with cholesterol biosynthesis (dpm of produced 14C-cholesterol in 1 ml of plasma, control values 2282-3218 dpm) is on record as 347 dpm. Further, the “Cholesterol biosynthesis inhibition rate” value in the data set with cholesterol biosynthesis (versus control group) was 85%.
